Measurements from patent US5053070A, “Pyrimidine derivatives, preparation processes thereof, herbicide containing the same, and herbicidal compositions containing the same along with other active ingredient” (Mitsui Toatsu Chemicals, Incorporated, priority 1988, dated 1991).

Key:
rice = assay: Treatment of soil under submerged condition, pre-emergence (Test 4), injury; type: in vivo; conditions: 30 g ai/a granule, 30 days later
Procedure: (§1) 1/5000-are Wagner pots were filled with soil. Seeds or tubers of barnyardgrass, Monochoria vaginalis, bulrush, Sagittaria pygmaea, Cyperus seroylnus and Eleocharis kuroguwai were seeded or planted under submerged condition. Two pairs of rice seedlings (2-3 leaf stage), which had been reared in advance, were transplanted to each pot and were allowed to germinate in a green house. Each pair consisted of two rice seedlings. One day later (before emergence of weeds), each pot was treated with a granule which had been prepared by processing a predetermined amount of the test composition in accordance with a similar method to the method described in Formulation Example 9. The state of emergence of weeds and the state of injury of rice were observed 30 days later.
(§2) In the table, the degrees of damages of the test plants and the degrees of injury of rice are shown in a similar manner to Example 2.

green foxtail = assay: Upland soil application test (Test 2); type: in vivo; conditions: 30 g ai/a, soil spray before emergence, 30 days later
Procedure: (§3) Resin-made 1/2500-are pots were filled with the soil of an upland field. After they were fertilized, soybean, peanut and cotton were seeded and 2-3 cm soil covering was applied. Seeds of redroot pigweed, common lambsquarters, barnyardgrass, green foxtail, large crabgrass, foxtail meadow and johnsongrass had been uniformly mixed with the soil. They were allowed to germinate in a green house. One day later (before emergence of weeds), a wettable powder prepared from a predetermined amount of each test compound in a similar manner to the method described in Formulation Example 1 was diluted with water and then sprayed evenly at an application rate equal to 10 l per are onto the surface of the soil by means of a pressure-operated ULV (ultra low volume) sprayer. Influence to the crops and weeds were observed 30 days later. The results are shown in Table 3, in which the degree of damages of each test plant and the degree of injury to each crop were determined by comparing the air-dried weights of the test plant and crop with those of the corresponding plant and crop in untreated pots and are shown in accordance with the following standard: […]

common lambsquarters = assay: Upland soil application test (Test 2); type: in vivo; conditions: 30 g ai/a, soil spray before emergence, 30 days later
Procedure: as §3

foxtail meadow = assay: Upland soil application test (Test 2); type: in vivo; conditions: 30 g ai/a, soil spray before emergence, 30 days later
Procedure: as §3

redroot pigweed = assay: Upland soil application test (Test 2); type: in vivo; conditions: 30 g ai/a, soil spray before emergence, 30 days later
Procedure: as §3

johnsongrass = assay: Upland soil application test (Test 2); type: in vivo; conditions: 30 g ai/a, soil spray before emergence, 30 days later
Procedure: as §3

barnyardgrass [1] = assay: Upland soil application test (Test 2); type: in vivo; conditions: 30 g ai/a, soil spray before emergence, 30 days later
Procedure: as §3

large crabgrass = assay: Upland soil application test (Test 2); type: in vivo; conditions: 30 g ai/a, soil spray before emergence, 30 days later
Procedure: as §3

[2] = test system: ALS (acetolactate syntase); assay: ALS enzyme assay (Test 1); type: biochemical, pea; conditions: 1,000 ppm (0.5 mg/0.5 ml)
Procedure: To determine the selectivity in enzyme level between crops and weeds, and ALS enzyme assay was conducted using pea as a representative of broadleaf crops and barnyardgrass as a representative of narrowleaf weeds.
After seeds of pea and barnyardgrass were allowed to germinate at 25° C. for 8-14 days in a dark place, partially-purified suspensions (Suspensions A) of acetolactate syntase were separately obtained from seedlings in accordance with the method described in the literature, Plant Physiology, 75, 827-831.
In a test tube, 0.5 mg of one of test compounds was weighed, followed by the addition of 0.15 ml of a 20 mM K2 HPO4 solution and 0.25 ml of a reaction substrate medium which consisted of 40 mM of K2 HPO4, 40 mM of sodium pyruvate, 1 mM of TPP, 1 mM of MgCl2 and 20 μM of FAD so that 0.4 ml of a reaction solution (Solution B) was prepared. Added to 0.4 ml of Solution B was 0.1 ml of suspension A. After the resultant mixture was shaken for 1 hour in a thermostat water bath controlled at 30° C., 50 μl of 6N sulfuric acid were added to terminate the reaction.
Next, the reaction-terminated liquid mixture was transferred into a thermostat water bath controlled at 60° C. and was heated for 15 minutes. Thereafter, 0.5 ml of a 0.5% creatine solution and 0.5 ml of a 5% alkaline α-naphthol solution were added, and the resultant mixture was maintained at 60° C. for 15 minutes. As a result, the test solution developed a pink-red color. After the above operation, the absorbance of the test solution at 525 nm was measured by a spectrophotometer (Absorbance 1 of Test Compound).
On the other hand, the absorbance (Absorbance 2 of Blank) of a solution obtained by subjecting a portion of Solution B, said portion being free of the test compound, to the above operation and the absorbance (Absorbance 3 of sulfuric acid terminated) of another solution obtained by subjecting another portion of Solution B, said portion containing 50 μl of 6N sulfuric acid as a test compound, were measured at the same time. Based on the values of the respective measurements, the enzyme assay at 1,000 ppm (0.5 mg/0.5 ml) of each compound was determined. [formula]

soybean = assay: Upland soil application test (Test 2), crop injury; type: in vivo; conditions: 30 g ai/a, soil spray before emergence, 30 days later
Procedure: as §3

cotton = assay: Upland soil application test (Test 2), crop injury; type: in vivo; conditions: 30 g ai/a, soil spray before emergence, 30 days later
Procedure: as §3

peanut = assay: Upland soil application test (Test 2), crop injury; type: in vivo; conditions: 30 g ai/a, soil spray before emergence, 30 days later
Procedure: as §3

bulrush [3] = assay: Treatment of soil under submerged condition, post-emergence (Test 5); type: in vivo; conditions: 30 g ai/a granule, 30 days later
Procedure: as §1, with “serroylnus” for “seroylnus”, “grow” for “germinate”, “When the barnyardgrass grew to two-leaf stage,” for “One day later (before emergence of weeds),”
(§4) In the table, the degrees of damages of the test plants and the degrees of injury of the rice are shown in a similar manner to Example 2.

Sagittaria pygmaea [4] = assay: as above; type: in vivo; conditions: 30 g ai/a granule, 30 days later
Procedure: as §1, with “serroylnus” for “seroylnus”, “grow” for “germinate”, “When the barnyardgrass grew to two-leaf stage,” for “One day later (before emergence of weeds),”
as §4

barnyardgrass [5] = assay: as above; type: in vivo; conditions: 30 g ai/a granule, post-emergence (barnyardgrass two-leaf stage), 30 days later
Procedure: as §1, with “serroylnus” for “seroylnus”, “grow” for “germinate”, “When the barnyardgrass grew to two-leaf stage,” for “One day later (before emergence of weeds),”
as §4

bulrush [6] = assay: Treatment of soil under submerged condition, pre-emergence (Test 4); type: in vivo; conditions: 30 g ai/a granule, 30 days later
Procedure: as §1, §2

Sagittaria pygmaea [7] = assay: as above; type: in vivo; conditions: 30 g ai/a granule, 30 days later
Procedure: as §1, §2

barnyardgrass [8] = assay: as above; type: in vivo; conditions: 30 g ai/a granule, 30 days later
Procedure: as §1, §2

| Inhibitory activity (%) Pea [2] [%] | SMILES | Injury Rice (rice) | Herbicidal effects Green foxtail (green foxtail) | Herbicidal effects Common lambsquarters (common lambsquarters) | Herbicidal effects Foxtail meadow (foxtail meadow) | Herbicidal effects Redroot pigweed (redroot pigweed) | Herbicidal effects Johnsongrass (johnsongrass) | Herbicidal effects Barnyardgrass (barnyardgrass [1]) | Herbicidal effects Large crabgrass (large crabgrass) | Injury Soybean (soybean) | Injury Cotton (cotton) | Injury Peanut (peanut) | Herbicidal effects Bulrush (bulrush [3]) | Herbicidal effects Sagittaria Pygmaea (Sagittaria pygmaea [4]) | Herbicidal effects Barnyardgrass (barnyardgrass [5]) | Herbicidal effects Bulrush (bulrush [6]) | Herbicidal effects Sagittaria Pygmaea (Sagittaria pygmaea [7]) | Herbicidal effects Barnyardgrass (barnyardgrass [8]) |
| --- | --- | --- | --- | --- | --- | --- | --- | --- | --- | --- | --- | --- | --- | --- | --- | --- | --- | --- |
| 11 | COc1cc(OC)nc(Oc2ccccc2C=NOCC=Cc2ccccc2)n1 [Compound No. 9] | 1 (71-90 (Slight damages)) | 5 (0-5 (Death)) | 4 (6-10 (Severe damages)) | 5 (0-5 (Death)) | 5 (0-5 (Death)) | 5 (0-5 (Death)) | 5 (0-5 (Death)) | 5 (0-5 (Death)) | 0 (91-100 (No damages)) | 0 (91-100 (No damages)) | 0 (91-100 (No damages)) | 5 (0-5 (Death)) | 5 (0-5 (Death)) | 5 (0-5 (Death)) | 4 (6-10 (Severe damages)) | 5 (0-5 (Death)) | 5 (0-5 (Death)) |
| 6 | COc1cc(OC)nc(Oc2ccccc2C=NOCC=Cc2ccc(Cl)cc2Cl)n1 [compound 30] | 0 (91-100 (No damages)) | 5 (0-5 (Death)) | 4 (6-10 (Severe damages)) | 5 (0-5 (Death)) | 5 (0-5 (Death)) | 5 (0-5 (Death)) | 5 (0-5 (Death)) | 5 (0-5 (Death)) | 0 (91-100 (No damages)) | 0 (91-100 (No damages)) | 0 (91-100 (No damages)) | 4 (6-10 (Severe damages)) | 4 (6-10 (Severe damages)) | 5 (0-5 (Death)) | 4 (6-10 (Severe damages)) | 5 (0-5 (Death)) | 5 (0-5 (Death)) |
| 0 | COc1cc(OC)nc(Oc2ccccc2C=NOCc2cccc(C)c2)n1 [compound 20] | 0 (91-100 (No damages)) | 5 (0-5 (Death)) | 4 (6-10 (Severe damages)) | 5 (0-5 (Death)) | 5 (0-5 (Death)) | 5 (0-5 (Death)) | 3 (11-40 (Medium damages)) | 5 (0-5 (Death)) | 0 (91-100 (No damages)) | 0 (91-100 (No damages)) | 0 (91-100 (No damages)) | 4 (6-10 (Severe damages)) | 4 (6-10 (Severe damages)) | 5 (0-5 (Death)) | 4 (6-10 (Severe damages)) | 4 (6-10 (Severe damages)) | 5 (0-5 (Death)) |
| 0 | COc1cc(OC)nc(Oc2ccccc2C=NOC(C)c2ccccc2)n1 (centres unmarked) [compound 21] | 0 (91-100 (No damages)) | 4 (6-10 (Severe damages)) | 3 (11-40 (Medium damages)) | 3 (11-40 (Medium damages)) | 3 (11-40 (Medium damages)) | 4 (6-10 (Severe damages)) | 3 (11-40 (Medium damages)) | 4 (6-10 (Severe damages)) | 0 (91-100 (No damages)) | 0 (91-100 (No damages)) | 0 (91-100 (No damages)) | 3 (11-40 (Medium damages)) | 3 (11-40 (Medium damages)) | 3 (11-40 (Medium damages)) | 3 (11-40 (Medium damages)) | 3 (11-40 (Medium damages)) | 3 (11-40 (Medium damages)) |
| 0 | COc1cc(OC)nc(Oc2ccccc2C=NOCC=Cc2ccc(C)cc2)n1 [compound 36] | 0 (91-100 (No damages)) | 5 (0-5 (Death)) | 4 (6-10 (Severe damages)) | 5 (0-5 (Death)) | 4 (6-10 (Severe damages)) | 5 (0-5 (Death)) | 5 (0-5 (Death)) | 5 (0-5 (Death)) | 0 (91-100 (No damages)) | 0 (91-100 (No damages)) | 0 (91-100 (No damages)) | 5 (0-5 (Death)) | 4 (6-10 (Severe damages)) | 5 (0-5 (Death)) | 4 (6-10 (Severe damages)) | 5 (0-5 (Death)) | 4 (6-10 (Severe damages)) |
| 0 | COc1cc(OC)nc(Oc2ccccc2C=NOCc2ccc(Cl)c(Cl)c2)n1 [compound 18] | 0 (91-100 (No damages)) | 4 (6-10 (Severe damages)) | 4 (6-10 (Severe damages)) | 3 (11-40 (Medium damages)) | 3 (11-40 (Medium damages)) | 3 (11-40 (Medium damages)) | 4 (6-10 (Severe damages)) | 3 (11-40 (Medium damages)) | 0 (91-100 (No damages)) | 0 (91-100 (No damages)) |  | 4 (6-10 (Severe damages)) | 4 (6-10 (Severe damages)) | 3 (11-40 (Medium damages)) | 2 (41-70 (Small damages)) | 4 (6-10 (Severe damages)) | 4 (6-10 (Severe damages)) |
